According to PMC9000801, “Bioactivities and Mode of Actions of Dibutyl Phthalates and Nocardamine from Streptomyces sp. H11809” (Molecules, 2022):

Biological target: T1, human GSK-3β (Hs GSK-3β) (Homo sapiens, UniProt P49841)
T1 construct: gene GSK3B
Assay: Kinase-Glo Plus luminescent kinase assay with recombinant enzyme; Michaelis-Menten and Lineweaver-Burk kinetics
Type: biochemical

T1 sequence (P49841 whole entry): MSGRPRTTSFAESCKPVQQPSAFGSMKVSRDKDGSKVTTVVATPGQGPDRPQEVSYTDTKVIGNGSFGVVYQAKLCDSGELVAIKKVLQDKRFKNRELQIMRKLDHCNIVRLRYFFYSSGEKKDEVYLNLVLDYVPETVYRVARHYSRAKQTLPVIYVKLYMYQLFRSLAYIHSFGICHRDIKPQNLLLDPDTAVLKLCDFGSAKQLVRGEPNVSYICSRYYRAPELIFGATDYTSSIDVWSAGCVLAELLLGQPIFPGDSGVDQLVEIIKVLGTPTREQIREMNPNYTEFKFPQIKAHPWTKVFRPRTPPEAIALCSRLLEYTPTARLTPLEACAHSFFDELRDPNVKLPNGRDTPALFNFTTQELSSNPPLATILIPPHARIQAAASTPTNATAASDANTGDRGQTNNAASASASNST

## CCCCOC(=O)c1ccccc1C(=O)OCCCC [DBP, dibutyl phthalate]
  IC50: 2 µM
